# T1: PER-1 (Pseudomonas aeruginosa, UniProt P37321)
# T1 sequence (P37321 27-308): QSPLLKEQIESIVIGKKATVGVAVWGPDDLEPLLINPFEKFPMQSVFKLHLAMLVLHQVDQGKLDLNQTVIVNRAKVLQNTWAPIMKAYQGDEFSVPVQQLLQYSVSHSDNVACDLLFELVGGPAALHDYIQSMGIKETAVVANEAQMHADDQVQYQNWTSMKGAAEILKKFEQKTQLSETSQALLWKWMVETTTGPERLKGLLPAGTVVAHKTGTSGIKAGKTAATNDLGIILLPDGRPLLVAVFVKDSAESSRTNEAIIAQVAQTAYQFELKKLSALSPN
# T2: PER-4 (Pseudomonas aeruginosa, UniProt P37321, S135T)
# T2 sequence (P37321 27-308 S135T): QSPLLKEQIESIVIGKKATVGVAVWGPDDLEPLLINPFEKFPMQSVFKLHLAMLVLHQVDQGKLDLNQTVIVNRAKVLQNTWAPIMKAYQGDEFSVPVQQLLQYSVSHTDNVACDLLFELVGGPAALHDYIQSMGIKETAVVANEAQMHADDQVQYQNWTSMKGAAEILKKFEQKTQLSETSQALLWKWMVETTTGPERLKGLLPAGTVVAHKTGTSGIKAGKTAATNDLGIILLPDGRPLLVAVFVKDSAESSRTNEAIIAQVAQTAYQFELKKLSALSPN
# How the values were obtained:
# [1] = system: PER-producing P. aeruginosa clinical isolates; assay: microbe, parasite or virus in culture; type: cell-based, Pseudomonas aeruginosa; details: for % resistance: share of isolates resistant
# [2] = system: PAO1 transconjugants carrying blaPER-1 plasmids; assay: Broth microdilution MIC, transconjugants and recipient PAO1-Rrif; type: cell-based; details: Pseudomonas aeruginosa
# Recombinant PAO1 strains = assay: Broth microdilution MIC, recombinant PAO1 strains carrying blaPER; type: cell-based; details: Pseudomonas aeruginosa
# PER-1 [3] = biological target: T1, PER-1; assay: Direct competition inhibition assay with nitrocefin, PER-1; type: biochemical
# PER-4 [4] = biological target: T2, PER-4; assay: Direct competition inhibition assay with nitrocefin, PER-4; type: biochemical; details: for fold higher IC50 value against PER-4 than against wild-type PER-1: PER-4 vs PER-1
# PER-4 [5] = biological target: T2, PER-4; assay: Steady-state enzyme kinetics, purified PER-4; type: biochemical; details: for Km / kcat: room temperature, 1×PBS pH 7.2
# PER-1 [6] = biological target: T1, PER-1; assay: Steady-state enzyme kinetics, purified PER-1; type: biochemical
# [7] = substrate: O=C(Cc1cccs1)N[C@@H]1C(=O)N2C(C(=O)O)=C(/C=C/c3ccc([N+](=O)[O-])cc3[N+](=O)[O-])CS[C@H]12; assay: Steady-state enzyme kinetics, purified PER-1; type: biochemical, Pseudomonas aeruginosa; details: other: PER-1, room temperature, 1×PBS pH 7.2
# [8] = substrate: CC(C)(O/N=C(\C(=O)N[C@@H]1C(=O)N2C(C(=O)[O-])=C(C[n+]3ccccc3)CS[C@H]12)c1csc(N)n1)C(=O)O; assay: Steady-state enzyme kinetics, purified PER-1; type: biochemical, Pseudomonas aeruginosa; details: other: PER-1, room temperature, 1×PBS pH 7.2
# [9] = PAO1, recipient strain PAO1-R^rif
# [10] = PAO1, transconjugant PAO1/pPA268
# [11] = PAO1, transconjugant PAO1/pPA272
# [12] = PAO1, transconjugant PAO1/pPA282
# [13] = PAO1, transconjugant PAO1/pPA975
# [14] = PAO1, transconjugant PAO1/pPA1017
# [15] = PAO1, transconjugant PAO1/pPA1018
# [16] = PAO1, strain PAO1-pGK1900 (empty vector)
# [17] = Pseudomonas aeruginosa, isolate PA268
# [18] = Pseudomonas aeruginosa, isolate PA272
# [19] = Pseudomonas aeruginosa, isolate PA282
# [20] = Pseudomonas aeruginosa, isolate PA975
# [21] = Pseudomonas aeruginosa, isolate PA1017
# [22] = Pseudomonas aeruginosa, isolate PA1018
Molecule,% resistance ([1]; 56 PER-producing PA strains) [%],MIC50 ([1]; Pseudomonas aeruginosa) [µg/mL],MIC90 ([1]; Pseudomonas aeruginosa) [µg/mL],"MIC [2, 10] [µg/mL]","MIC [2, 11] [µg/mL]","MIC [2, 12] [µg/mL]","MIC [2, 13] [µg/mL]","MIC [2, 14] [µg/mL]","MIC [2, 15] [µg/mL]",MIC (Recombinant PAO1 strains; PAO1) [µg/mL],MIC (Recombinant PAO1 strains; [16]) [µg/mL],"MIC (Recombinant PAO1 strains; PAO1, strain PAO1-pGK1900-PER1) [µg/mL]","MIC (Recombinant PAO1 strains; PAO1, strain PAO1-pGK1900-PER4) [µg/mL]","MIC [1, 17] [µg/mL]","MIC [1, 18] [µg/mL]","MIC [1, 19] [µg/mL]","MIC [1, 20] [µg/mL]","MIC [1, 21] [µg/mL]","MIC [1, 22] [µg/mL]",other results
"NCC[C@H](O)C(=O)N[C@@H]1C[C@H](N)[C@@H](O[C@H]2O[C@H](CN)[C@@H](O)[C@H](O)[C@H]2O)[C@H](O)[C@H]1O[C@H]1O[C@H](CO)[C@@H](O)[C@H](N)[C@H]1O [AMK, amikacin]",94.64,> 128,> 128,,,,,,,,,,,,,,,,,
"C[C@H]1[C@H](NC(=O)/C(=N\OC(C)(C)C(=O)O)c2csc(N)n2)C(=O)N1S(=O)(=O)O [AZT, aztreonam]",,,,> 128,> 128,> 128,> 128,> 128,> 128,4,8,> 128,> 128,,,,,,,"MIC [2, 9]: 2 µg/mL"
NC(=O)[C@@H]1CC[C@@H]2CN1C(=O)N2OS(=O)(=O)O [Avibactam],,,,,,,,,,,,,,,,,,,,IC50 (PER-1 [3]): 0.217 µM; Ki (PER-1 [3]): 0.191 ± 0.004 µM; IC50 (PER-4 [4]): 729 µM; Ki (PER-4 [4]): 473 ± 29.2 µM; fold higher IC50 value against PER-4 than against wild-type PER-1 (PER-4 [4]): ~3359 fold
"CC(C)(O/N=C(\C(=O)N[C@@H]1C(=O)N2C(C(=O)[O-])=C(C[n+]3ccccc3)CS[C@H]12)c1csc(N)n1)C(=O)O [CAZ, ceftazidime]",100.00,> 128,> 128,> 128,> 128,> 128,128,> 128,> 128,1,2,> 128,> 128,> 128,> 128,> 128,> 128,> 128,> 128,"MIC range ([1]; 56 PER-producing PA strains): >128 µg/mL; % resistance ([1]; 56 PER-producing PA strains, listed as ceftazidime): 100%; Km (PER-4 [5]): 726 µM; kcat (PER-4 [5]): 607.66 s⁻¹"
"CC(C)(O/N=C(\C(=O)N[C@@H]1C(=O)N2C(C(=O)[O-])=C(C[N+]3(CCNC(=O)c4ccc(O)c(O)c4Cl)CCCC3)CS[C@H]12)c1csc(N)n1)C(=O)O [CFDC, Cefiderocol]",,,,2,2,2,2,2,,1,0.5,2,2,2,2,2,1,2,1,"MIC [2, 9]: 0.5 µg/mL"
O=C(O)[C@H]1/C(=C/CO)O[C@@H]2CC(=O)N21 [Clavulanic acid],,,,,,,,,,,,,,,,,,,,IC50 (PER-1 [3]): 0.027 µM; Ki (PER-1 [3]): 0.024 ± 0.0004 µM; IC50 (PER-4 [4]): 0.152 µM; Ki (PER-4 [4]): 0.099 ± 0.0006 µM; fold higher IC50 value against PER-4 than against wild-type PER-1 (PER-4 [4]): ~5.6 fold
"CO/N=C(\C(=O)N[C@@H]1C(=O)N2C(C(=O)[O-])=C(C[N+]3(C)CCCC3)CS[C@H]12)c1csc(N)n1 [FEP, cefepime]",,,,128,128,128,64,128,128,1,4,> 128,> 128,,,,,,,"MIC [2, 9]: 2 µg/mL"
"C[C@@H](O)[C@H]1C(=O)N2C(C(=O)O)=C(SCCN=CN)C[C@H]12 [IPM, imipenem]",92.86,16,32,,2,,,,32,1,,,,16,16,16,16,32,32,MIC range ([1]; 56 PER-producing PA strains): 0.5 to 64 µg/mL; imipenem hydrolysis activity (PER-4 [5]): hardly any detectable; imipenem hydrolysis activity (PER-1 [6]; PER-1): hardly any detectable
"C[C@H]1COc2c(N3CCN(C)CC3)c(F)cc3c(=O)c(C(=O)O)cn1c23 [LEV, levofloxacin]",82.14,16,32,,,,,,,,,,,,,,,,,MIC range ([1]; 56 PER-producing PA strains): 0.5 to 64 µg/mL
"C[C@@H](O)[C@H]1C(=O)N2C(C(=O)O)=C(S[C@@H]3CN[C@H](C(=O)N(C)C)C3)[C@H](C)[C@H]12 [MEM, meropenem]",91.07,16,64,1,1,1,2,1,32,0.5,1,1,1,16,32,32,16,16,32,
O=C(Cc1cccs1)N[C@@H]1C(=O)N2C(C(=O)O)=C(/C=C/c3ccc([N+](=O)[O-])cc3[N+](=O)[O-])CS[C@H]12 [Nitrocefin],,,,,,,,,,,,,,,,,,,,Km (PER-4 [5]): 18.5 µM; kcat (PER-4 [5]): 224.03 s⁻¹; fold lower nitrocefin hydrolysis activity of PER-1 than PER-4 (PER-1 [6]; PER-1 vs PER-4): ~1.7 fold
"CCN1CCN(C(=O)N[C@@H](C(=O)N[C@@H]2C(=O)N3[C@@H]2SC(C)(C)[C@@H]3C(=O)O)c2ccccc2)C(=O)C1=O [PIP, piperacillin]",98.21,> 128,> 128,> 128,> 128,> 128,128,128,> 128,4,,32,16,> 128,> 128,> 128,128,> 128,> 128,
C[C@]1(Cn2ccnn2)[C@H](C(=O)O)N2C(=O)C[C@H]2S1(=O)=O [Tazobactam],,,,,,,,,,,,,,,,,,,,IC50 (PER-1 [3]): 0.363 µM; Ki (PER-1 [3]): 0.32 ± 0.0131 µM; IC50 (PER-4 [4]): 1090 µM; Ki (PER-4 [4]): 707 ± 97.7 µM; fold higher IC50 value against PER-4 than against wild-type PER-1 (PER-4 [4]): ~3002 fold
colistin [CST],0.00,,,,,,,,,,,,,,,,,,,MIC50 ([1]; 56 PER-producing PA strains): 2 µg/mL; MIC90 ([1]; 56 PER-producing PA strains): 2 µg/mL; MIC range ([1]; 56 PER-producing PA strains): 0.25 to 2 µg/mL
PER-1 (Pseudomonas aeruginosa) (protein) QSPLLKEQIESIVIGKKATVGVAVWGPDDLEPLLINPFEKFPMQSVFKLHLAMLVLHQVDQGKLDLNQTVIVNRAKVLQNTWAPIMKAYQGDEFSVPVQQLLQYSVSHSDNVACDLLFELVGGPAALHDYIQSMGIKETAVVANEAQMHADDQVQYQNWTSMKGAAEILKKFEQKTQLSETSQALLWKWMVETTTGPERLKGLLPAGTVVAHKTGTSGIKAGKTAATNDLGIILLPDGRPLLVAVFVKDSAESSRTNEAIIAQVAQTAYQFELKKLSALSPN,,,,,,,,,,,,,,,,,,,,Km [7]: 72.92 µM; kcat [7]: 512 s⁻¹; Km [8]: 668.75 µM; kcat [8]: 537 s⁻¹
